Test results from patent publication US20110082074A1, “AGENT FOR PREVENTING PERIODONTAL DISEASE” (priority 2009, published 2011).
Entries after “also recorded” stand apart in the source; their conditions may differ.

Assays:
[1] = system: P. gingivalis carrying type II FimA fimbrial protein; experiment: Binding Inhibitory Experiment 3: fluorescently labeled P. gingivalis bound to seeded test cells; assay type: cell-based, Porphyromonas gingivalis; conditions: 30 μl beads, 10 μl P. gingivalis, room temperature 10 minutes; FIG. 4
Procedure: Test cells were seeded into a 96-well plate in an amount of 5×10^5 cells. The next day, 10 μl of P. gingivalis carrying FimA type II fimbrial protein was allowed to bind, and 30 μl each of SBA beads, RGD peptide−SBA beads, and fibronectin−SBA beads were added. The plate was shaken at room temperature for 10 minutes.
The 96-well plate was gently washed. Fluorescently labeled P. gingivalis carrying type II FimA fimbrial protein bound to the cells was detected using a fluorescence detector. P. gingivalis was fluorescently labeled by using an FITC Labeling Kit (manufactured by Kirkegaard & Perry Laboratories, Inc.) after P. gingivalis was immobilized with formalin.

TGF-β = experiment: Confirmation of cytokine production: TGF-β produced by Ca9-22 cells; assay type: cell-based; conditions: 30 μl beads, FIG. 7
Procedure: Ca9-22 cells were seeded into a 96-well plate in an amount of 5×10^5 cells. The next day, (1) a lipopolysaccharide (hereinafter also referred to as “LPS”; 10 ng/ml), (2) TNF-α(10 ng/ml), (3) P. gingivalis carrying FimA type II fimbrial protein (5 μl), or (4) FimA II-GST (10 μg/ml) was added as a reagent. The parenthesized numerals in the above sentence indicate the final concentrations in the media containing the reagents to 50 μl of the medium.
SBA beads, RGD peptide−SBA beads, or fibronectin−SBA beads were allowed to coexist therewith in an amount of 30 μl, and the plate was rocked. The amount of TGF-β produced was then measured.

[2] = system: interaction between gingival cells and FimA II; experiment: Comparison with other lectins: labeled test cells bound to immobilized FimA II-His; assay type: cell-based, Porphyromonas gingivalis; conditions: 10 μL beads; SBA compared to WGA (wheat germ lectin); FIG. 5
Procedure: FimA II-His (10 μg/ml) was immobilized onto a 96-well plate, and test cells that had been fluorescently labeled with CellTracker Green CMFDA (manufactured by Invitrogen) were bound in an amount of 1×10^6 cells.
Subsequently, 10 μL of SBA beads, RGD peptides, RGD peptide−SBA beads, WGA beads, or RGD peptide-WGA beads were allowed to coexist, and the plate was shaken.
The WGA beads are beads prepared in the same manner as in the production of SBA beads described above in Item 1, except for using WGA in place of SBA. The RGD peptide-WGA beads are beads prepared in the same manner as in the production of RGD peptide−SBA beads described above in Item 2, except for using WGA in place of SBA.
(§1) The 96-well plate was filled with PBS. After unbound cells were removed, bound cells were detected using a fluorescent plate reader.

[3] = system: binding between gingival cells and FimA II; experiment: Effect of monosaccharide on binding inhibitory effect: labeled test cells bound to immobilized FimA II-His; assay type: cell-based, Porphyromonas gingivalis; conditions: monosaccharide final concentration 50 μg/ml with 10 μl RGD peptide−SBA beads; FIG. 6
Procedure: FimA II-His (10 μg/ml) was immobilized onto a 96-well plate, and test cells that had been fluorescently labeled with CellTracker Green CMFDA (Invitrogen) were bound thereto in an amount of 1×10^6 cells.
SBA beads, RGD peptide, or RGD peptide−SBA beads were allowed to coexist in the wells in an amount of 10 μl, and the plate was shaken. In addition to the RGD peptide−SBA beads, glucose or N-acetylgalactosamine (GalNAc) was allowed to coexist therewith in a final concentration of 50 μg/ml. For comparison, wells of a 96-well plate in which no beads were present and only N-acetylgalactosamine was present in a final concentration of 50 μg/ml were also prepared.
as §1

[4] = target: T1, binding of FimA type II fimbrial protein to α5β1 integrin expression cells (Homo sapiens, UniProt P05556+P08648); experiment: Binding Inhibitory Experiment 1: FimA II-His bound to seeded test cells, detected by ELISA; assay type: cell-based, Porphyromonas gingivalis; conditions: cells immobilized; 10 μl beads; about 30 μM RGD peptide or fibronectin, about 100 μM SBA; compared to fibronectin or RGD peptide alone; FIG. 2
T1 construct: expressed in transfected cells; host or cells: CHO (CHO-VLA5)
Procedure: (§2) CHO cells on which α5β1 integrin was forcedly expressed by introducing a gene encoding α5β1 integrin (hereinafter sometimes referred to as “CHO-VLA5”), and gingival cells were used in the Binding Inhibitory Experiments described below. As the gingival cells, three types of cells, GE1, Ca9-22 and Sa3, were used. As a control, CHO cells into which α5β1 integrin was not introduced were used. GE1, Ca9-22, and Sa3 were obtained from ATCC (American Type Culture Collection).
Test cells were seeded into a 96-well plate in an amount of 5×10^5 cells. Subsequently, 50 μl of FimA II-His (10 μg/ml) was allowed to bind to the cells, and 10 μl of SBA beads, RGD peptide−SBA beads, or fibronectin−SBA beads were allowed to coexist. The plate was shaken at room temperature for 10 minutes. For comparison, an experiment in which an RGD peptide or fibronectin was allowed to coexist was performed in a similar manner. […]
After the 96-well plate was gently washed, FimA II-His bound to the cells was detected by ELISA using an anti-His tag antibody (Cat. No. 71554-3; available from Novagen).
The fibronectin−SBA bead solution contained about 30 μM of fibronectin and about 100 μM of SBA, whereas the solution containing only fibronectin contained about 30 μM of fibronectin. These values were calculated by measuring the amount of each protein not bound to the beads during the production. […]

[5] = target: T2, binding of type II FimA protein to α5β1 integrin expression cells (Homo sapiens, UniProt P05556+P08648); experiment: Binding Inhibitory Experiment 2: fluorescently labeled test cells bound to immobilized FimA II-His; assay type: cell-based, Porphyromonas gingivalis; conditions: 50 μl beads, compared to fibronectin or RGD peptide alone, FIG. 3
T2 construct: expressed in transfected cells; host or cells: CHO (CHO-VLA5)
Procedure: as §2
FimA II-His (10 μg/(ml)) was immobilized onto a 96-well plate, and test cells that had been fluorescently labeled with CellTracker Green CMFDA (available from Invitrogen) were added in an amount of 1×10^6 cells and allowed to bind.
50 μl of SBA beads, RGD peptide−SBA beads, or fibronectin−SBA beads were allowed to coexist in each well, and the plate was shaken. For comparison, an experiment in which an RGD peptide or fibronectin was allowed to coexist was performed in a similar manner.
Each well of the 96-well plates was filled with serum-free Dulbecco's modified Eagle's medium (hereinafter referred to as DMEM) or with PBS, and covered with a Parafilm to prevent air from entering. The plate was turned upside-down and allowed to stand for 5 minutes. After removing the Parafilm, a supernatant containing unbound cells was removed, and bound cells were detected using a fluorescent plate reader.

[6] = target: T3, α5β1 integrin expressing cells (Homo sapiens, UniProt P05556+P08648); experiment: Binding ratio of RGD peptide or fibronectin to SBA beads, FimA II-His binding inhibitory experiment; assay type: cell-based; conditions: RGD peptide bound in an amount of 10 to 30 μg per 100 μg of SBA beads
T3 construct: expressed in transfected cells; host or cells: CHO (CHO-VLA5)
Procedure: Another experiment was performed using α5β1 integrin expressing cells in a manner similar to the FimA II-His tag protein binding inhibitory experiment described above, to investigate the binding ratio of RGD peptide or fibronectin to SBA beads.

[7] = system: TNFRI (TNF-α Receptor Type I); experiment: TNFRI phosphorylation by western blotting in test cells treated with P. gingivalis; assay type: cell-based; conditions: test cells with P. gingivalis carrying type II FimA fimbrial protein (10 μl), 30 μl beads, FIG. 8
Procedure: Test cells were seeded into a 96-well plate in an amount of 5×10^5 cells. The next day, each well was washed with DMEM, and then P. gingivalis carrying type II FimA fimbrial protein (10 μl) was added as a reagent. The numerical value in the parentheses indicates the final concentration in the medium containing the reagent.
SBA beads, RGD peptide−SBA beads, or fibronectin−SBA beads were allowed to coexist therewith in an amount of 30 μl, and the plate was shaken. After each plate was washed well with PBS, cells were dissolved in 1% NP-40, and subjected to western blotting using an anti-TNFRI antibody, anti-tyrosine phosphorylation antibody, and anti-actin antibody.

[8] = Ca9-22 cells treated with LPS 10 ng/ml
[9] = Ca9-22 cells treated with TNF-α 10 ng/ml
[10] = Ca9-22 cells with FimA II-GST 10 μg/ml
[11] = Ca9-22 cells with P. gingivalis carrying FimA type II fimbrial protein (5 μl)

T2 sequence (P08648 42-894 limits assumed): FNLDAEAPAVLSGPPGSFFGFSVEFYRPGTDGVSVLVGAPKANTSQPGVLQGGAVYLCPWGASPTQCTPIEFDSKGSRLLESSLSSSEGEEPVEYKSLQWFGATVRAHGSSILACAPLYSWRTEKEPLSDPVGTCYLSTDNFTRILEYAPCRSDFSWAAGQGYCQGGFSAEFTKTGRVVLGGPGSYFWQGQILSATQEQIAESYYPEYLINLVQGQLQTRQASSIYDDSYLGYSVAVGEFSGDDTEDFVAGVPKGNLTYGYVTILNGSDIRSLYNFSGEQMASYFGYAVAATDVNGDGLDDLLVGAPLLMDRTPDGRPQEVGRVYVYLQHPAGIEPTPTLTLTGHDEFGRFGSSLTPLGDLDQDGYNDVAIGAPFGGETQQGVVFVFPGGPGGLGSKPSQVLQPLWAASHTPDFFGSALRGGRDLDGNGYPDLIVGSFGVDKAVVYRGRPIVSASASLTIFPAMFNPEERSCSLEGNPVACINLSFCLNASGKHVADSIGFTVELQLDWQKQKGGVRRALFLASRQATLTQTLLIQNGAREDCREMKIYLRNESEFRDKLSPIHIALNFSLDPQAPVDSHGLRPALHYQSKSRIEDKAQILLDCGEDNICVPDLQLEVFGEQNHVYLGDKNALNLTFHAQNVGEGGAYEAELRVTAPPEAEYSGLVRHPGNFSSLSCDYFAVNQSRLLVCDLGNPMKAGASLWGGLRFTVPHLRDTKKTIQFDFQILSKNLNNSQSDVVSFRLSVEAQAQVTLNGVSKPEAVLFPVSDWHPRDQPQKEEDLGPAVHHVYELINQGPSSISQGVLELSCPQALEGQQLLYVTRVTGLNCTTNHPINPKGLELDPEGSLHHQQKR
T2 sequence (P08648 895-1049 limits assumed): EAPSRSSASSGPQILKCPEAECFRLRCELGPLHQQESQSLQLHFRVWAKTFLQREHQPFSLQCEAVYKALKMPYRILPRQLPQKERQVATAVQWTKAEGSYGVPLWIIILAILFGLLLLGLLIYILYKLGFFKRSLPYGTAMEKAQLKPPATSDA
T2 sequence (P05556 21-798): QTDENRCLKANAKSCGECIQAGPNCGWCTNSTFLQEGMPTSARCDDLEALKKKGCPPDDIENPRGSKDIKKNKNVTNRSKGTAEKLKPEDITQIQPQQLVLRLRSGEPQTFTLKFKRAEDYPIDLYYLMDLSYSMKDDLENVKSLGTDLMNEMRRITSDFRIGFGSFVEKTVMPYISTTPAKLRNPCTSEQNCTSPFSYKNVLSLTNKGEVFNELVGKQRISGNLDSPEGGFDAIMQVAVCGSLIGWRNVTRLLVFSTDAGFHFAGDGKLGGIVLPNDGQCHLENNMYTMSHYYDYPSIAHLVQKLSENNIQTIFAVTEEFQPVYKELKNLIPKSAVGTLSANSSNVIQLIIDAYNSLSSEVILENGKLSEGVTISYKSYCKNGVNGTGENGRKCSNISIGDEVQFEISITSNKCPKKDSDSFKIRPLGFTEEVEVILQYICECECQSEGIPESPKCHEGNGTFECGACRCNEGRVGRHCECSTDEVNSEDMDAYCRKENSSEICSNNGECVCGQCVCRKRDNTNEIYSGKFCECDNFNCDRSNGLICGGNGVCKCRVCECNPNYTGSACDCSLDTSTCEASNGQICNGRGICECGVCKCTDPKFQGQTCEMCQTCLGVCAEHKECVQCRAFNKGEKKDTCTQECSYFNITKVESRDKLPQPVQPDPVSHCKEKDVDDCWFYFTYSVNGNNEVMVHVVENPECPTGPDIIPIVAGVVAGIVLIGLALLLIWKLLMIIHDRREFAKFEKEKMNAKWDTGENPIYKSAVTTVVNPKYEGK
T1 sequence (P08648 42-894 limits assumed): as the sequence (P08648 42-894 limits assumed) above
T1 sequence (P08648 895-1049 limits assumed): as the sequence (P08648 895-1049 limits assumed) above
T1 sequence (P05556 21-798): as the sequence (P05556 21-798) above
T3 sequence (P08648 42-894 limits assumed): as the sequence (P08648 42-894 limits assumed) above
T3 sequence (P08648 895-1049 limits assumed): as the sequence (P08648 895-1049 limits assumed) above
T3 sequence (P05556 21-798): as the sequence (P05556 21-798) above

| Molecule | inhibition of binding of P. gingivalis carrying type II FimA fimbrial protein to gingival cells [1] | production of TGF-β (TGF-β; [8]) | production of TGF-β (TGF-β; [9]) | production of TGF-β (TGF-β; [10]) | production of TGF-β (TGF-β; [11]) | inhibition of the interaction between gingival cells and FimA II [2] | effect of coexisting monosaccharide on the RGD peptide−SBA binding inhibitory effect [3] | inhibition of binding of FimA type II fimbrial protein to α5β1 integrin expression cells [4] | inhibition of binding of type II FimA protein to α5β1 integrin expression cells [5] | binding inhibition depending on binding ratio of RGD peptide to SBA beads [6] | phosphorylated tyrosine of the activation receptor (TNFRI) [7] |
| --- | --- | --- | --- | --- | --- | --- | --- | --- | --- | --- | --- |
| SBA beads: conjugate of soybean lectin and NHS-activated Sepharose beads | slightly inhibited binding | production of TGF-β was observed | production of TGF-β was observed | production of TGF-β was detected | production of TGF-β was detected | – | – | – | – | – | – |
| SBA: soybean lectin (soybean agglutinin), mucin-type sugar chain-binding lectin; tested bound to beads | – | – | – | – | – | more potently inhibits | – | – | – | – | – |
| CC(=O)N[C@H]1C(O)O[C@H](CO)[C@H](O)[C@@H]1O (stereo partly shown) [N-acetylgalactosamine] | – | – | – | – | – | – | did so | – | – | – | – |
| RGD peptide−SBA beads: beads in which SBA beads and RGD-peptide (SEQ ID NO: 3, RGDSPASSKP) are bound | inhibited; also recorded: remarkably high binding inhibitory effect | production of TGF-β was observed | production of TGF-β was observed | production of TGF-β was inhibited | production of TGF-β was inhibited | – | – | significantly inhibited | significantly inhibited; also recorded: higher than that of fibronectin−SBA beads | inhibited binding most effectively | not detected |
